What all share (assay): ≥ marks a high value that may be exact or a test limit, other limits are often not marked, values filed in µg/mL are converted to µM
The test system of assay [1] is Escherichia coli ATCC 25726.
Assay [2] has as its system Staphylococcus aureus ATCC 25923.
The test system of another assay is Bacillus subtilis.
Assay [3] deals with Staphylococcus aureus ATCC 2592.
For assay [4], the system named is Candida albicans ATCC 2002.
Assay [5] deals with Escherichia coli ATCC 25922.
For assay [6], the system named is Pseudomonas aeruginosa Ps4.
For assay [7], the system named is Pseudomonas aeruginosa CMCCB 10104.

Values after ≈ are worked out from the molar mass of the structure shown.

For the compound `CC[C@H](C)[C@H](NC(=O)CNC(=O)CNC(=O)[C@H](CCCCN)NC(=O)[C@H](Cc1ccccc1)NC(=O)[C@H](Cc1ccccc1)NC(=O)[C@H](CCCCN)NC(=O)[C@H](CCCCN)NC(=O)[C@H](CC(C)C)NC(=O)[C@@H](NC(=O)[C@H](CC(=O)O)NC(=O)[C@H](CCCCN)NC(=O)[C@@H](NC(=O)[C@@H](NC(=O)[C@@H]1CCCN1C(=O)[C@@H]1CCCN1C(=O)[C@@H](NC(=O)[C@H](CCCCN)NC(=O)[C@@H](N)Cc1ccccc1)[C@@H](C)CC)[C@@H](C)CC)C(C)C)[C@@H](C)O)C(=O)N[C@@H](C)C(=O)NCC(=O)N[C@H](C(=O)N[C@@H](CCSC)C(=O)NCC(=O)N[C@@H](CCC(N)=O)C(=O)O)C(C)C` [FKIPPIVKDTLKKFFKGGIAGVMGQ], the minimal inhibitory concentration (MIC) – broadly, the lowest concentration found to suppress growth – in assay [1] amounted to 20 µM (≈ 54.4 µg/mL); in assay [2], 5 µM (≈ 13.6 µg/mL).
For the compound `CC[C@H](C)[C@H](NC(=O)[C@H](CCCCN)NC(=O)CNC(=O)[C@H](CC(C)C)NC(=O)[C@H](CC(C)C)NC(=O)[C@H](CO)NC(=O)[C@H](C)NC(=O)[C@H](CC(C)C)NC(=O)[C@H](CC(C)C)NC(=O)CNC(=O)CNC(=O)[C@H](CC(C)C)NC(=O)[C@@H](N)Cc1ccccc1)C(=O)O` [FLGGLLASLLGKI], the MIC against Bacillus subtilis amounted to 2.38 µM (≈ 3.1 µg/mL); in assay [3] it was 2.38 µM (≈ 3.1 µg/mL); in assay [4] it was 1.23 µM (≈ 1.6 µg/mL); in assay [5] it was 19.2 µM (≈ 25 µg/mL).
Consider `CC[C@H](C)[C@@H]1NC(=O)[C@H](C)NC(=O)[C@@H](NC(=O)[C@H](Cc2ccccc2)NC(=O)[C@@H](NC(=O)[C@@H](NC(=O)[C@@H]2CCCN2C(=O)[C@@H](NC(=O)[C@@H](NC(=O)[C@H](CCCCN)NC(=O)[C@H](C)NC(=O)[C@H](C)NC(=O)[C@@H](NC(=O)[C@H](CCCN=C(N)N)NC(=O)[C@H](CC(C)C)NC(=O)[C@@H](NC(=O)[C@H](C)NC(=O)[C@@H]2CCCN2C(=O)[C@H](CC(C)C)NC(=O)[C@@H](N)Cc2ccccc2)C(C)C)C(C)C)[C@@H](C)CC)C(C)C)[C@@H](C)O)C(C)C)CSSC[C@@H](C(=O)O)NC(=O)[C@H](CCCCN)NC(=O)[C@H](CCCCN)NC(=O)[C@H](CO)NC1=O` [FLPAVLRVAAKIVPTVFCAISKKC], for which the MIC came to 24.3 µM (≈ 62.5 µg/mL) in assay [1] and 3.11 µM (≈ 7.99 µg/mL) in assay [2].
Regarding `CC[C@H](C)[C@H](NC(=O)[C@H](CC(N)=O)NC(=O)[C@H](CCCN=C(N)N)NC(=O)[C@H](CCC(N)=O)NC(=O)[C@H](Cc1c[nH]c2ccccc12)NC(=O)[C@@H](N)Cc1ccccc1)C(=O)N[C@@H](Cc1ccccc1)C(=O)N[C@@H](CCCCN)C(=O)N[C@H](C(=O)N[C@@H](CCCN=C(N)N)C(N)=O)C(C)C` [FWQRNIFKVR], the MIC in assay [6] was not below 179 µM.
Same read-out and setting: with `CC[C@H](C)[C@H](NC(=O)[C@H](CC(N)=O)NC(=O)[C@H](CCCN=C(N)N)NC(=O)[C@H](CCC(N)=O)NC(=O)[C@H](Cc1c[nH]c2ccccc12)NC(=O)[C@@H](N)Cc1ccccc1)C(=O)N[C@@H](CCCN=C(N)N)C(=O)N[C@@H](Cc1ccccc1)C(=O)N[C@H](C(=O)N[C@@H](CCCN=C(N)N)C(N)=O)C(C)C` [FWQRNIRFVR] the figure was not below 176 µM.
Consider `CC[C@H](C)[C@H](NC(=O)[C@H](CC(N)=O)NC(=O)[C@H](CCCN=C(N)N)NC(=O)[C@H](CCC(N)=O)NC(=O)[C@H](Cc1c[nH]c2ccccc12)NC(=O)[C@@H](N)Cc1ccccc1)C(=O)N[C@@H](CCCN=C(N)N)C(=O)N[C@@H](CCCCN)C(=O)N[C@@H](Cc1c[nH]c2ccccc12)C(=O)N[C@@H](CCCN=C(N)N)C(N)=O` [FWQRNIRKWR], for which the MIC is not below 83.9 µM in assay [6] and 83.9 µM (≈ 125 µg/mL) in assay [5].
In assay [6], `CC[C@H](C)[C@H](NC(=O)[C@H](CC(N)=O)NC(=O)[C@H](CCCN=C(N)N)NC(=O)[C@H](CCC(N)=O)NC(=O)[C@H](Cc1c[nH]c2ccccc12)NC(=O)[C@@H](N)Cc1ccccc1)C(=O)N[C@@H](CCCN=C(N)N)C(=O)N[C@@H](Cc1c[nH]c2ccccc12)C(=O)N[C@@H](CCCN=C(N)N)C(=O)N[C@@H](CCCN=C(N)N)C(N)=O` [FWQRNIRWRR] showed an MIC not below 165 µM.
Still for that read-out and setting: the figure for `CC[C@H](C)[C@H](NC(=O)[C@H](CC(N)=O)NC(=O)[C@H](CCCN=C(N)N)NC(=O)[C@H](CCC(N)=O)NC(=O)[C@H](Cc1c[nH]c2ccccc12)NC(=O)[C@@H](N)Cc1ccccc1)C(=O)N[C@@H](CO)C(=O)N[C@@H](CCCCN)C(=O)N[C@H](C(=O)N[C@@H](CCCN=C(N)N)C(N)=O)C(C)C` [FWQRNISKVR] is not below 187 µM.
For the compound `CC[C@H](C)[C@H](NC(=O)[C@H](CCCN=C(N)N)NC(=O)[C@H](Cc1c[nH]c2ccccc12)NC(=O)[C@@H](NC(=O)[C@H](CCCN=C(N)N)NC(=O)[C@H](Cc1c[nH]c2ccccc12)NC(=O)[C@@H](N)Cc1ccccc1)[C@@H](C)CC)C(=O)N[C@@H](Cc1c[nH]c2ccccc12)C(=O)N[C@@H](CCCN=C(N)N)C(N)=O` [FWRIWRIWR], the MIC in assay [6] was not below 44.1 µM.
Still for that read-out and setting: the figure for `CC[C@H](C)[C@H](NC(=O)[C@H](CCCN=C(N)N)NC(=O)[C@@H](NC(=O)[C@H](CC(N)=O)NC(=O)[C@H](CCCN=C(N)N)NC(=O)[C@H](Cc1c[nH]c2ccccc12)NC(=O)[C@@H](N)Cc1ccccc1)[C@@H](C)CC)C(=O)N[C@@H](CCCN=C(N)N)C(=O)N[C@@H](CCCN=C(N)N)C(N)=O` [FWRNIRIRR] is not below 94.9 µM; for `NC(=O)[C@H](CCCN=C(N)N)NC(=O)[C@H](CCCN=C(N)N)NC(=O)[C@H](Cc1c[nH]c2ccccc12)NC(=O)[C@H](CCCN=C(N)N)NC(=O)[C@H](Cc1c[nH]c2ccccc12)NC(=O)[C@@H](N)Cc1ccccc1` [FWRWRR] it is not below 124 µM.
With `CC[C@H](C)[C@H](NC(=O)CNC(=O)[C@H](Cc1ccccc1)NC(=O)[C@H](CCSC)NC(=O)[C@@H](NC(=O)[C@H](CC(N)=O)NC(=O)[C@H](CCCCN)NC(=O)[C@H](Cc1ccccc1)NC(=O)[C@H](C)NC(=O)CNC(=O)[C@H](CCCCN)NC(=O)[C@H](Cc1ccccc1)NC(=O)CN)C(C)C)C(=O)N[C@@H](C)C(=O)N[C@@H](CCCCN)C(=O)N[C@@H](CO)C(=O)N[C@@H](C)C(=O)NCC(=O)N[C@@H](CCCCN)C(=O)N[C@@H](CO)C(=O)N[C@@H](C)C(=O)N[C@@H](CC(C)C)C(=O)N[C@@H](CC(N)=O)C(=O)N[C@@H](C)C(=O)N[C@@H](CC(C)C)C(=O)N[C@@H](C)C(=O)N[C@H]1CSSC[C@@H](C(=O)O)NC(=O)[C@H](CO)NC(=O)[C@H](CCCCN)NC(=O)[C@H](CC(=O)O)NC(=O)[C@H]([C@@H](C)CC)NC(=O)[C@H](CCCCN)NC1=O` [GFKGAFKNVMFGIAKSAGKSALNALACKIDKSC], the MIC in assay [1] and in assay [2] was 9.18 µM (≈ 31 µg/mL) each time.
Consider `CC(C)C[C@@H]1NC(=O)CNC(=O)[C@H](CO)NC(=O)[C@H](CC(C)C)NC(=O)[C@H](C)NC(=O)[C@@H](NC(=O)[C@H](C)NC(=O)[C@@H](NC(=O)[C@H](CCCCN)NC(=O)[C@H](CCCCN)NC(=O)CNC(=O)[C@H](C)NC(=O)CNC(=O)[C@H](Cc2ccccc2)NC(=O)[C@H](CC(C)C)NC(=O)[C@H](CO)NC(=O)CNC(=O)[C@H](CC(C)C)NC(=O)[C@H](CC(C)C)NC(=O)CN)C(C)C)CSSC[C@@H](C(=O)O)NC1=O` [GLLGSLFGAGKKVACALSGLC], for which the MIC in assay [1] amounted to 31.8 µM (≈ 62.4 µg/mL); in assay [2] it was 63.6 µM (≈ 125 µg/mL).
Consider `CC[C@H](C)[C@H](N)C(=O)N[C@@H](CC(C)C)C(=O)NCC(=O)N1CCC[C@H]1C(=O)N[C@H](C(=O)N[C@@H](CC(C)C)C(=O)N[C@@H](CO)C(=O)N[C@@H](CCSC)C(=O)N[C@H](C(=O)NCC(=O)N[C@@H](CO)C(=O)N[C@@H](C)C(=O)N[C@@H](CC(C)C)C(=O)NCC(=O)NCC(=O)N[C@@H](CC(C)C)C(=O)N[C@H](C(=O)N[C@@H](CCCCN)C(=O)N[C@@H](CCCCN)C(=O)N[C@H](C(N)=O)[C@@H](C)CC)[C@@H](C)CC)C(C)C)C(C)C` [ILGPVLSMVGSALGGLIKKI], for which the MIC is 2.03 µM (≈ 4 µg/mL) in assay [7], 1.02 µM (≈ 2 µg/mL) in assay [3], 1.02 µM (≈ 2 µg/mL) in assay [4] and 10.2 µM (≈ 20 µg/mL) in assay [5].
Consider `CC[C@H](C)[C@H](N)C(=O)N[C@@H](CC(N)=O)C(=O)N[C@@H](Cc1c[nH]c2ccccc12)C(=O)N[C@@H](CCCCN)C(=O)NCC(=O)N[C@H](C(=O)N[C@@H](C)C(=O)N[C@@H](C)C(=O)N[C@@H](CCSC)C(=O)N[C@@H](CCCCN)C(=O)N[C@@H](CCCCN)C(=O)N[C@@H](CC(C)C)C(=O)N[C@@H](CC(C)C)C(N)=O)[C@@H](C)CC` [INWKGIAAMKKLL], for which the values for the MIC in assay [3], in assay [4] and in assay [5] were 2.49 µM (≈ 3.7 µg/mL), 5.05 µM (≈ 7.5 µg/mL) and 10.1 µM (≈ 15 µg/mL), respectively.
With `CC(C)[C@H](N)C(=O)N[C@@H](CCCCN)C(=O)N[C@@H](CCCN=C(N)N)C(=O)N[C@@H](Cc1ccccc1)C(=O)N[C@@H](CCCCN)C(=O)N[C@@H](CCCCN)C(=O)N[C@@H](Cc1ccccc1)C(=O)N[C@@H](Cc1ccccc1)C(=O)N[C@@H](CCCN=C(N)N)C(=O)N[C@@H](CCCCN)C(=O)N[C@@H](Cc1ccccc1)C(=O)N[C@@H](CCCCN)C(=O)N[C@@H](CCCCN)C(=O)N[C@@H](CO)C(=O)N[C@H](C(N)=O)C(C)C` [VKRFKKFFRKFKKSV], the MIC in the assay with Bacillus subtilis is not below 50.7 µM; in assay [3] it was not below 50.7 µM; in assay [4], 4.75 µM (≈ 9.38 µg/mL); in assay [5], 19 µM (≈ 37.5 µg/mL).
